# PMC12394750, “2H-1,4-Benzoxazin-3(4H)-one linked 1,2,3-triazole derivatives and their study on inducing DNA damage in tumor cells” (Frontiers in Pharmacology, 2025)
# How the values were obtained:
# A549 (lung cancer) = test: CCK-8 cell viability, A549; type: cell-based; conditions: Homo sapiens, 72 h
# Protocol: (§1) To assess the cytotoxic potential of the newly synthesized compounds c1–c20, a panel of human tumor cell lines—including Huh-7 (hepatocellular carcinoma), MCF-7 (breast cancer), and A549 (lung cancer)—was treated with each compound at a concentration of 50 μM for 72 h. Cell viability and cytotoxicity were evaluated using the CCK-8 assay.
# (§2) Cells were cultured in DMEM or RPMI 1640 medium with 10% FBS and 1% penicillin/streptomycin at 37 °C and 5% CO2. A CCK-8 assay was performed with several human cancer cell lines, including A549, Huh-7, MCF-7, HCT-116, and SKOV3, according to the instructions. Cells were plated at a density of 1,000–3,000 cells per well in a 96-well plate. After 24-h incubation, cells were treated with 40 μM compounds for 48 h or 50 μM compounds for 72 h. Cell viability was measured by adding 10 μL per well of CCK-8 reagent, which was dissolved in the cell culture medium, for 1 hour. Absorbance was taken at 450 nm using a microplate reader. The IC50 values of the compounds were further determined. Cells were seeded in a 96-well plate at a density of 1 × 10^3 cells/well. After adhering overnight, cells treated with […] concentrations (10 μM, 20 μM, 40 µM, or 80 μM) were used to draw the dose–response curve, and IC50 values were calculated by GraphPad Prism software. The CCK-8 assay was performed in triplicate, and each experiment was repeated at least three times. The results were expressed as mean ± SEM, and P < 0.05 was considered statistically significant.
# [1] = tested on: Huh-7 (hepatocellular carcinoma); test: CCK-8 cell viability / IC50, Huh-7; type: cell-based, human; conditions: Homo sapiens, Huh-7, 72 h; for viability at 50 µM: CCK-8; for IC50: CCK-8 dose-response
# Protocol: as §1, §2
# Huh-7 cells [2] = test: Calcein AM/PI live/dead viability assay; type: cell-based, human; conditions: Huh-7, 10, 20 or 30 μM, 24 h
# Protocol: To evaluate the anti-proliferative effects of 2H-1,4-benzoxazin-3(4H)-one linked 1,2,3-triazole derivatives, live/dead cell staining was performed using Calcein AM and PI on Huh-7 cells. The cells were treated with different concentrations (10 μM, 20 μM, or 30 μM) of compounds c5, c14, c16, and c18 for 24 h. Living cells were stained green by Calcein AM, while dead cells were stained red by PI.
# FIGURE 4 Compounds c5, c14, c16, and c18 increased dead cells and decreased living cells. (A–D) Huh-7 cells were treated with different concentrations of compounds c5, c14, c16, and c18 (10 μM, 20 μM, or 30 μM) for 24 h. Living and dead cells were stained with Calcein AM and PI, respectively, and then observed by confocal microscopy. Data were presented as means ± SEM; *P < 0.05.
# A live and dead viability assay was performed using the Calcein/PI Live/Dead Viability Assay Kit. Cells were plated at a density of 2 × 10^3 cells per well in a 96-well plate to adhere overnight. Then, compounds were added with different concentrations for 24 h. The medium was replaced with cell culture medium containing Calcein AM and propidium iodide for 30 min at 37 °C in the dark. Cells were then observed and photographed by confocal microscopy.
# MCF-7 (breast cancer) = test: CCK-8 cell viability, MCF-7; type: cell-based; conditions: Homo sapiens, MCF7, 72 h
# Protocol: as §1, §2
# Huh-7 cells [3] = test: Annexin V-FITC/PI apoptosis flow cytometry; type: cell-based, human; conditions: Huh-7, 10, 20 or 30 μM, 72 h
# Protocol: Apoptosis, a programmed form of cell death, was investigated to understand the molecular mechanisms behind the anti-proliferative effects of the novel compounds. Huh-7 cells were treated with various concentrations (10 μM, 20 μM, or 30 μM) of compounds c5, c14, c16, and c18 for 72 h. The cells were then stained with Annexin V-FITC and propidium iodide (PI) and analyzed by flow cytometry to determine the proportion of apoptotic cells.
# Cells were plated at a density of 3 × 10^5 cells per well in a 6-well plate. Different concentrations of compounds were added to cells for 72 h. Then, cells were collected and washed with PBS. Annexin V-FITC and propidium iodide were then added to stained cells for 20 min. Apoptotic cells were quantified by a flow cytometer, and raw data were further analyzed by Flow Jo software v10. Values were expressed as mean ± SEM. Statistical significance was assessed using one-way ANOVA followed by the Student–Newman–Keuls test. P < 0.05 was considered statistically significant. Data were visualized using GraphPad Prism.
# Huh-7 cells [4] = test: Autophagy staining assay (MDC probe); type: cell-based, human; conditions: Huh-7, 10, 20 or 30 μM, 24 h; especially at doses lower than 30 μM
# Protocol: To further evaluate the role of 2H-1,4-benzoxazin-3(4H)-one linked 1,2,3-triazole derivatives in regulating autophagy, Huh-7 cells were treated with different doses (10 μM, 20 μM, or 30 μM) of compounds c5, c14, c16, and c18 for 24 h, and the autophagosome was detected by the MDC (monodansylcadaverine) probe. MDC could specifically label autophagosomes, which will show as green, and we can directly observe them using a fluorescence microscope.
# FIGURE 8 Compounds c5, c14, c16, and c18 affected autophagy. Autophagy staining in Huh-7 cells treated with compounds c5, c14, c16, and c18 (10 μM, 20 μM, or 30 μM).
# Huh-7 cells were seeded in a 96-well plate at a density of 2 × 10^3 cells/well. Cells were treated with compounds at the doses of 0 μM, 5 μM, 10 μM, 20 μM, or 30 μM. After 24 h of treatment, the medium was removed, and cells were stained with monodansylcadaverine for 1 h in the dark at 37 °C. The cells were photographed with confocal microscopy.
# Huh-7 cells [5] = test: DNA damage staining (γ-H2AX); type: cell-based, human; conditions: Huh-7, 10, 20 or 30 μM, 24 h
# Protocol: In order to further verify the effects of 2H-1,4-benzoxazin-3(4H)-one linked 1,2,3-triazole derivatives on DNA damage, Huh-7 cells were treated with different concentrations (10 μM, 20 μM, or 30 μM) of compounds c5, c14, c16, and c18. After 24 h of treatment, cells were detected with the DNA damage assay kit and observed under a fluorescence microscope.
# FIGURE 7 Compounds c5, c14, c16, and c18 affected DNA damage. (A–D) DNA damage detection shown by γ-H2AX staining in Huh-7 cells treated with compounds c5, c14, c16, and c18 (10 μM, 20 μM, or 30 μM).
# Huh-7 cells with a density of 2 × 10^3 cells/well were seeded in 96-well plates. Different doses (0 μM, 5 μM, 10 μM, 20 μM, or 30 μM) of the compounds were added to cells for 24 h. A DNA Damage Detection Kit was used to dye the cells. The cell nucleus was stained blue, and DNA-damaged cells were stained green. The cells were observed and photographed by a fluorescent microscope.
smiles,measurement,setting,value
"O=C1COc2cc(NC(=O)c3cccc(-c4cn(Cc5ccc(Br)cc5)nn4)c3)ccc2N1 [compound c5, 3-(1-(4-bromobenzyl)-1H-1,2,3-triazol-4-yl)-N-(3-oxo-3,4-dihydro-2H-benzo[b][1,4]oxazin-7-yl)benzamide]",viability at 50 µM,A549 (lung cancer),90.8 ± 5.32%
same,viability at 50 µM,[1],15.1 ± 0.43%
same,IC50,[1],28.5 ± 0.29 µM
same,Dead cells (PI) in live/dead staining,Huh-7 cells [2],dose-dependent increase
same,viability at 50 µM,MCF-7 (breast cancer),107 ± 2.85%
same,Apoptosis (proportion of apoptotic cells),Huh-7 cells [3],"significant, dose-dependent increases"
same,Autophagosomes (MDC probe),Huh-7 cells [4],increased
same,DNA damage (γ-H2AX staining),Huh-7 cells [5],significantly induce cell DNA damage
"O=C1COc2cc(NC(=O)c3cccc(-c4cn(Cc5ccc(Cl)cc5)nn4)c3)ccc2N1 [compound c18, 3-(1-(4-chlorobenzyl)-1H-1,2,3-triazol-4-yl)-N-(3-oxo-3,4-dihydro-2H-benzo[b][1,4]oxazin-7-yl)benzamide]",viability at 50 µM,A549 (lung cancer),89.8 ± 2.89%
same,viability at 50 µM,[1],17.1 ± 0.43%
same,IC50,[1],19.05 ± 0.12 µM
same,Dead cells (PI) in live/dead staining,Huh-7 cells [2],dose-dependent increase
same,viability at 50 µM,MCF-7 (breast cancer),103 ± 1.83%
same,Apoptosis (proportion of apoptotic cells),Huh-7 cells [3],"significant, dose-dependent increases"
same,Autophagosomes (MDC probe),Huh-7 cells [4],increased
same,DNA damage (γ-H2AX staining),Huh-7 cells [5],significantly induce cell DNA damage
"O=C1COc2cc(NC(=O)c3cccc(-c4cn(Cc5cccc(F)c5)nn4)c3)ccc2N1 [compound c14, 3-(1-(3-fluorobenzyl)-1H-1,2,3-triazol-4-yl)-N-(3-oxo-3,4-dihydro-2H-benzo[b][1,4]oxazin-7-yl)benzamide]",viability at 50 µM,A549 (lung cancer),77.5 ± 3.1%
same,viability at 50 µM,[1],18.1 ± 0.76%
same,IC50,[1],32.6 ± 1.23 µM
same,Dead cells (PI) in live/dead staining,Huh-7 cells [2],dose-dependent increase
same,viability at 50 µM,MCF-7 (breast cancer),106 ± 1.48%
same,Apoptosis (proportion of apoptotic cells),Huh-7 cells [3],"significant, dose-dependent increases"
same,Autophagosomes (MDC probe),Huh-7 cells [4],increased
same,DNA damage (γ-H2AX staining),Huh-7 cells [5],significantly induce cell DNA damage
"O=C1COc2cc(NC(=O)c3cccc(-c4cn(Cc5ccc(C(F)(F)F)cc5)nn4)c3)ccc2N1 [compound c16, N-(3-oxo-3,4-dihydro-2H-benzo[b][1,4]oxazin-7-yl)-3-(1-(4-(trifluoromethyl)benzyl)-1H-1,2,3-triazol-4-yl)benzamide]",viability at 50 µM,A549 (lung cancer),76.8 ± 4.31%
same,viability at 50 µM,[1],17.7 ± 1.27%
same,IC50,[1],31.87 ± 0.04 µM
same,Dead cells (PI) in live/dead staining,Huh-7 cells [2],dose-dependent increase
same,viability at 50 µM,MCF-7 (breast cancer),101.6 ± 0.92%
same,Apoptosis (proportion of apoptotic cells),Huh-7 cells [3],"significant, dose-dependent increases"
same,Autophagosomes (MDC probe),Huh-7 cells [4],increased
same,DNA damage (γ-H2AX staining),Huh-7 cells [5],significantly induce cell DNA damage
